Assay results taken from patent publication US20070056052A1, “Methods of generating knock-out rodents” (priority 2001, published 2007).

Test system: SD male rats (germ line)
Assay: Visual phenodeviant screen of F1 pups from ENU-treated SD males
Type: in vivo, rat
Description: ENU mutagenesis rat protocol: Pathogen-free inbred Wistar Furth (WF), inbred Fischer-344 (F344) and outbred Sprague Dawley (SD) male and female rats were obtained from Harlan Sprague Dawley, Inc. (Indianapolis, Ind.). All rats were given Teklad Lab Blox chow (Harlan Teklad, Madison, Wis.), acidified water ad libitum, and were housed under a 12-h light/12-h dark cycle. After a one week acclimation period, nine-week-old male rats were administered ENU as a single intraperitoneal injection; for a split dose, rats were injected with ENU once at 9 weeks of age and again at 10 weeks of age. One gram of ENU (Sigma) was dissolved in 10 mls of 95% ethanol and then diluted with 90 mls of phosphate citrate buffer prior to injection. All injections of ENU were given in the morning hours. To characterize the effect of ENU treatment on fertility in the various rat strains, mutagenized males were paired with untreated females of the same strain for consecutive 2-3 week periods, beginning 3-5 weeks after the first ENU treatment and continuing a minimum of 26 weeks post-ENU. We observed female rats for vaginal plugs, gross pregnancy and date of birth/size of litters. For our phenotypic mutant (phenodeviant) rat screening experiments, ENU-treated SD male rats were bred with SD female rats and all F1 pups were visually checked for gross abnormalities in physical development or behavior as compared to littermates at least twice prior to weaning at approximately 21 days of age. A subset of the F1 phenodeviant rats identified was bred to SD rats to determine inheritance of the observed phenotypic mutation. Several of the heritable phenodeviant rat lines are currently being maintained and backcrossed to eliminate residual ENU-induced genetic changes not associated with the phenotypic mutation.
Phenodeviant rat production: Multiple ENU dosing protocols in the SD rat strain determine their germline mutagenic potential by breeding ENU-treated SD males to females of the same strain to produce F1 offspring. These pups were examined for readily observable physical or behavioral abnormalities. Phenodeviants were identified at all doses listed in Table 2 with a variety of abnormalities observed. Phenodeviant F1 pups were born at various times between 6-52 weeks post-ENU treatment of male founders. The most frequent abnormalities visually identified were those of the eyes, tail, and growth. […] Selected phenodeviant rat F1 pups were maintained and bred to determine the heritability of the physical abnormalities (Table 3). […] These abnormalities were diverse (Table 4).

CCN(N=O)C(N)=O [ENU, N-ethyl-N-nitrosourea]
5: F1 phenodeviant rats, abnormality observed: eye (single dose 100 mg/kg) | F1 phenodeviant rats, abnormality observed: limb/digit (split dose 2 × 60 mg/kg)
7: total number of phenodeviants (split dose 2 × 50 mg/kg, 782 F1 rats examined)
6: F1 phenodeviant rats, abnormality observed: multiple (split dose 2 × 60 mg/kg) | F1 phenodeviant rats, abnormality observed: skin/hair (split dose 2 × 60 mg/kg)
79: total number of phenodeviants (split dose 2 × 60 mg/kg, 5163 F1 rats examined)
10: F1 phenodeviant rats, abnormality observed: growth (<50% littermates) (split dose 2 × 60 mg/kg)
0: F1 phenodeviant rats, abnormality observed: craniofacial (single dose 100 mg/kg) | F1 phenodeviant rats, abnormality observed: growth (<50% littermates) (single dose 100 mg/kg) | F1 phenodeviant rats, abnormality observed: limb/digit (single dose 100 mg/kg) | F1 phenodeviant rats, abnormality observed: multiple (single dose 100 mg/kg) | F1 phenodeviant rats, abnormality observed: skin/hair (single dose 100 mg/kg) | F1 phenodeviant rats, abnormality observed: tail (single dose 100 mg/kg) | F1 phenodeviant rats, abnormality observed: behavioral (single dose 120 mg/kg) | F1 phenodeviant rats, abnormality observed: craniofacial (single dose 120 mg/kg) | F1 phenodeviant rats, abnormality observed: gonad (single dose 120 mg/kg) | F1 phenodeviant rats, abnormality observed: growth (<50% littermates) (single dose 120 mg/kg) | F1 phenodeviant rats, abnormality observed: limb/digit (single dose 120 mg/kg) | F1 phenodeviant rats, abnormality observed: multiple (single dose 120 mg/kg) | F1 phenodeviant rats, abnormality observed: skin/hair (single dose 120 mg/kg) | F1 phenodeviant rats, abnormality observed: behavioral (split dose 2 × 50 mg/kg) | F1 phenodeviant rats, abnormality observed: craniofacial (split dose 2 × 50 mg/kg) | F1 phenodeviant rats, abnormality observed: ear (split dose 2 × 50 mg/kg) | F1 phenodeviant rats, abnormality observed: gonad (split dose 2 × 50 mg/kg) | F1 phenodeviant rats, abnormality observed: growth (<50% littermates) (split dose 2 × 50 mg/kg) | F1 phenodeviant rats, abnormality observed: limb/digit (split dose 2 × 50 mg/kg) | F1 phenodeviant rats, abnormality observed: multiple (split dose 2 × 50 mg/kg) | F1 phenodeviant rats, abnormality observed: skin/hair (split dose 2 × 50 mg/kg) | F1 phenodeviant rats, abnormality observed: behavioral (split dose 2 × 60 mg/kg) | F1 phenodeviant rats, abnormality observed: ear (split dose 2 × 60 mg/kg) | F1 phenodeviant rats, abnormality observed: gonad (split dose 2 × 60 mg/kg)
8: total number of phenodeviants (single dose 100 mg/kg, 1251 F1 rats examined)
1: F1 phenodeviant rats, abnormality observed: behavioral (single dose 100 mg/kg) | F1 phenodeviant rats, abnormality observed: ear (single dose 100 mg/kg) | F1 phenodeviant rats, abnormality observed: gonad (single dose 100 mg/kg) | F1 phenodeviant rats, abnormality observed: ear (single dose 120 mg/kg) | F1 phenodeviant rats, abnormality observed: eye (single dose 120 mg/kg) | F1 phenodeviant rats, abnormality observed: tail (single dose 120 mg/kg)
37: F1 phenodeviant rats, abnormality observed: eye (split dose 2 × 60 mg/kg)
2: F1 phenodeviant rats, abnormality observed: craniofacial (split dose 2 × 60 mg/kg)
4: F1 phenodeviant rats, abnormality observed: eye (split dose 2 × 50 mg/kg)
13: F1 phenodeviant rats, abnormality observed: tail (split dose 2 × 60 mg/kg)
3: total number of phenodeviants (single dose 120 mg/kg, 419 F1 rats examined) | F1 phenodeviant rats, abnormality observed: tail (split dose 2 × 50 mg/kg)
